Values joined by “and” are separate entries in the source; they are usually repeats but may differ in a detail not shown here. Equal entries are not always repeated. Inconclusive results and toxic doses are left out.
Test system: CD2F1 mice, L1210 leukemia ip, survival T/C
Test: NCI In Vivo Anticancer Drug Screen. Data for tumor model L1210 Leukemia (intraperitoneal) in CD2F1 (CDF1) mice
Conditions: higher = longer survival
Outline: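 Ratio T/C, where T is the treated-group value and C the vehicle-dosed control value, from mice implanted with a transplantable tumor.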

[1] = endpoint: mean survival time, dose: 200.0 mg/kg/injection, schedule: Q04DX002 (ip), vehicle: saline with Tween-80
[2] = endpoint: mean survival time, dose: 100.0 mg/kg/injection, schedule: Q01DX009 (ip), vehicle: saline
[3] = endpoint: mean survival time, dose: 100.0 mg/kg/injection, schedule: Q04DX003 (ip), vehicle: saline
[4] = endpoint: mean survival time, dose: 200.0 mg/kg/injection, schedule: Q01DX009 (ip), vehicle: saline
[5] = endpoint: mean survival time, dose: 200.0 mg/kg/injection, schedule: Q04DX003 (ip), vehicle: saline
[6] = endpoint: mean survival time, dose: 400.0 mg/kg/injection, schedule: Q01DX009 (ip), vehicle: saline
[7] = endpoint: mean survival time, dose: 400.0 mg/kg/injection, schedule: Q04DX003 (ip), vehicle: saline
[8] = endpoint: median survival time, dose: 25.0 mg/kg/injection, schedule: Q01DX009 (ip), vehicle: saline with Tween-80
[9] = endpoint: median survival time, dose: 50.0 mg/kg/injection, schedule: Q01DX009 (ip), vehicle: saline with Tween-80
[10] = endpoint: median survival time, dose: 100.0 mg/kg/injection, schedule: Q01DX009 (ip), vehicle: saline with Tween-80
[11] = endpoint: median survival time, dose: 200.0 mg/kg/injection, schedule: Q01DX009 (ip), vehicle: saline with Tween-80
[12] = endpoint: mean survival time, dose: 12.5 mg/kg/injection, schedule: Q01DX009 (ip), vehicle: water
[13] = endpoint: mean survival time, dose: 25.0 mg/kg/injection, schedule: Q01DX009 (ip), vehicle: water
[14] = endpoint: mean survival time, dose: 50.0 mg/kg/injection, schedule: Q01DX009 (ip), vehicle: water
[15] = endpoint: mean survival time, dose: 100.0 mg/kg/injection, schedule: Q04DX003 (ip), vehicle: saline with Tween-80
[16] = endpoint: mean survival time, dose: 200.0 mg/kg/injection, schedule: Q04DX003 (ip), vehicle: saline with Tween-80
[17] = endpoint: mean survival time, dose: 400.0 mg/kg/injection, schedule: Q04DX003 (ip), vehicle: saline with Tween-80
[18] = endpoint: mean survival time, dose: 100.0 mg/kg/injection, schedule: Q04DX003 (ip), vehicle: Klucel (hydroxypropylcellulose) (HPC)
[19] = endpoint: mean survival time, dose: 100.0 mg/kg/injection, schedule: Q01DX001 (ip), vehicle: saline with Tween-80

In the case of `CC(C)NC(C)C`, the T/C [1] is reported as 98 % of control and the T/C (endpoint: mean survival time, dose: 400.0 mg/kg/injection, schedule: Q04DX002 (ip), vehicle: saline with Tween-80) is reported as 98 % of control.

`Cc1ccc(S(=O)(=O)/C=C(/I)C(=O)c2ccccc2)cc1` was tested, and the T/C [2] was 90 % of control, the T/C [3] was 100 % of control and the T/C [4] was 93 % of control. The T/C [5] was 96 % of control, the T/C [6] was 88 % of control and the T/C [7] was 108 % of control.

With `Cn1nnc2c(C(N)=O)ncn2c1=O` the T/C (endpoint: median survival time, dose: 6.25 mg/kg/injection, schedule: Q01DX009 (ip), vehicle: saline with Tween-80) was 111 % of control, the T/C (endpoint: median survival time, dose: 12.5 mg/kg/injection, schedule: Q01DX009 (ip), vehicle: saline with Tween-80) was 122 % of control and the T/C [8] was 151 % of control. For the same compound, the T/C [9] was 159 % of control and 168 % of control, the T/C [10] was 182 % of control and 193 % of control and the T/C [11] was 121 % of control and 93 % of control.

In the case of `COC1C(O)CC(OC2CC(OC3CC(O[C@@H]4C(=O)c5c(cc6cc(OC7CC(OC8CC(O)C(O)C(C)O8)C(O)C(C)O7)c(C)c(O)c6c5O)C[C@H]4[C@H](OC)C(=O)[C@@H](O)[C@@H](C)O)OC(C)C3O)OC(C)C2O)OC1C` (stereo not given in full), the T/C (endpoint: mean survival time, dose: 0.09 mg/kg/injection, schedule: Q01DX009 (ip), vehicle: saline) is reported as 97 % of control, the T/C (endpoint: mean survival time, dose: 0.18 mg/kg/injection, schedule: Q01DX009 (ip), vehicle: saline) is reported as 103 % of control and the T/C (endpoint: mean survival time, dose: 0.37 mg/kg/injection, schedule: Q01DX009 (ip), vehicle: saline) is reported as 111 % of control. The T/C (endpoint: mean survival time, dose: 0.75 mg/kg/injection, schedule: Q01DX009 (ip), vehicle: saline) was 104 % of control, the T/C (endpoint: mean survival time, dose: 1.5 mg/kg/injection, schedule: Q01DX009 (ip), vehicle: saline) was 95 % of control and the T/C (endpoint: mean survival time, dose: 375.0 micrograms/kg/injection, schedule: Q01DX009 (ip), vehicle: saline) was 110 % of control. The T/C (endpoint: mean survival time, dose: 750.0 micrograms/kg/injection, schedule: Q01DX009 (ip), vehicle: saline) was 115 % of control, the T/C (endpoint: mean survival time, dose: 1500.0 micrograms/kg/injection, schedule: Q01DX009 (ip), vehicle: saline) was 109 % of control and the T/C (endpoint: mean survival time, dose: 3000.0 micrograms/kg/injection, schedule: Q01DX009 (ip), vehicle: saline) was 104 % of control.

In the case of `CCNC(=S)N1c2c(nc(N)[nH]c2=O)NCC1CNc1ccc(C(=O)NC(CCC(=O)O)C(=O)O)cc1` (stereo not given), the T/C (endpoint: mean survival time, dose: 100.0 mg/kg/injection, schedule: Q01DX001 (ip), vehicle: alkali diluted with saline) is reported as 98 % of control, the T/C (endpoint: mean survival time, dose: 200.0 mg/kg/injection, schedule: Q01DX001 (ip), vehicle: alkali diluted with saline) is reported as 101 % of control and the T/C (endpoint: mean survival time, dose: 400.0 mg/kg/injection, schedule: Q01DX001 (ip), vehicle: alkali diluted with saline) is reported as 103 % of control.

`N=C(N)c1ccc(/C=C/c2ccc(C(=N)N)cc2O)cc1` was tested, and the T/C (endpoint: mean survival time, dose: 3.12 mg/kg/injection, schedule: Q01DX009 (ip), vehicle: water) was 91 % of control, the T/C (endpoint: mean survival time, dose: 6.25 mg/kg/injection, schedule: Q01DX009 (ip), vehicle: water) was 97 % of control and the T/C [12] was 103 % of control. The T/C [13] was 105 % of control and the T/C [14] was 111 % of control.

`Cc1ccc(-[n+]2nscc2O)cc1` was tested, and the T/C (endpoint: mean survival time, dose: 75.0 mg/kg/injection, schedule: Q01DX001 (ip), vehicle: saline) was 96 % of control, the T/C (endpoint: mean survival time, dose: 150.0 mg/kg/injection, schedule: Q01DX001 (ip), vehicle: saline) was 97 % of control and the T/C (endpoint: mean survival time, dose: 300.0 mg/kg/injection, schedule: Q01DX001 (ip), vehicle: saline) was 92 % of control.

With `O=C(O)CP(=O)(O)O` the T/C (endpoint: mean survival time, dose: 4.0 mg/kg/injection, schedule: Q01DX009 (ip), vehicle: saline) was 98 % of control, the T/C (endpoint: mean survival time, dose: 8.0 mg/kg/injection, schedule: Q01DX009 (ip), vehicle: saline) was 96 % of control and the T/C (endpoint: mean survival time, dose: 16.0 mg/kg/injection, schedule: Q01DX009 (ip), vehicle: saline) was 104 % of control. For the same compound, the T/C (endpoint: mean survival time, dose: 32.0 mg/kg/injection, schedule: Q01DX009 (ip), vehicle: saline) was 98 % of control, the T/C (endpoint: mean survival time, dose: 37.5 mg/kg/injection, schedule: Q01DX009 (ip), vehicle: saline) was 91 % of control and the T/C (endpoint: mean survival time, dose: 50.0 mg/kg/injection, schedule: Q01DX009 (ip), vehicle: saline) was 95 % of control and 103 % of control. For the same compound, the T/C (endpoint: mean survival time, dose: 64.0 mg/kg/injection, schedule: Q01DX009 (ip), vehicle: saline) was 103 % of control, the T/C (endpoint: mean survival time, dose: 75.0 mg/kg/injection, schedule: Q01DX009 (ip), vehicle: saline) was 102 % of control and the T/C [2] was 98 % of control and 102 % of control. The T/C (endpoint: mean survival time, dose: 128.0 mg/kg/injection, schedule: Q01DX009 (ip), vehicle: saline) was 86 % of control, the T/C (endpoint: mean survival time, dose: 150.0 mg/kg/injection, schedule: Q01DX009 (ip), vehicle: saline) was 100 % of control and the T/C [4] was 97 % of control and 102 % of control. For the same compound, the T/C [6] was 98 % of control and 101 % of control and the T/C (endpoint: mean survival time, dose: 800.0 mg/kg/injection, schedule: Q01DX009 (ip), vehicle: saline) was 93 % of control and 103 % of control.

For `Cc1ccc(S(=O)(=O)Nc2cccc3c(NS(=O)(=O)c4ccc(C)cc4)cccc23)cc1`, the T/C [15] was 96 % of control, the T/C [16] was 100 % of control and the T/C [17] was 96 % of control.

For `COc1cc(N=Nc2ccc(C(=O)O)cc2)ccc1N(CCCl)CCCl`, the T/C (endpoint: mean survival time, dose: 25.0 mg/kg/injection, schedule: Q04DX003 (ip), vehicle: Klucel (hydroxypropylcellulose) (HPC)) was 106 % of control and 109 % of control, the T/C (endpoint: mean survival time, dose: 50.0 mg/kg/injection, schedule: Q04DX003 (ip), vehicle: Klucel (hydroxypropylcellulose) (HPC)) was 106 % of control and 112 % of control and the T/C [18] was 113 % of control and 98 % of control.

In the case of `O=C(COc1ccc(F)cc1)OCCOC(=O)COc1ccc(F)cc1`, the T/C (endpoint: mean survival time, dose: 100.0 mg/kg/injection, schedule: Q04DX002 (ip), vehicle: saline with Tween-80) is reported as 100 % of control and the T/C [1] is reported as 95 % of control.

For `O=C(CCC(=O)NO)NO`, the T/C (endpoint: mean survival time, dose: 100.0 mg/kg/injection, schedule: Q04DX002 (ip), vehicle: saline) was 101 % of control and the T/C (endpoint: mean survival time, dose: 200.0 mg/kg/injection, schedule: Q04DX002 (ip), vehicle: saline) was 90 % of control.

For `NNc1c(F)c(F)c2c(F)c(F)c(F)c(F)c2c1F`, the T/C (endpoint: mean survival time, dose: 25.0 mg/kg/injection, schedule: Q01DX001 (ip), vehicle: saline with Tween-80) was 97 % of control, the T/C (endpoint: mean survival time, dose: 50.0 mg/kg/injection, schedule: Q01DX001 (ip), vehicle: saline with Tween-80) was 96 % of control and the T/C [19] was 88 % of control.

`C(=N\Nc1ccccc1)/c1ccccc1` was tested, and the T/C [19] was 107 % of control, the T/C [18] was 106 % of control and the T/C (endpoint: mean survival time, dose: 200.0 mg/kg/injection, schedule: Q01DX001 (ip), vehicle: saline with Tween-80) was 94 % of control. The T/C (endpoint: mean survival time, dose: 200.0 mg/kg/injection, schedule: Q04DX003 (ip), vehicle: Klucel (hydroxypropylcellulose) (HPC)) was 98 % of control, the T/C (endpoint: mean survival time, dose: 400.0 mg/kg/injection, schedule: Q01DX001 (ip), vehicle: saline with Tween-80) was 100 % of control and the T/C (endpoint: mean survival time, dose: 400.0 mg/kg/injection, schedule: Q04DX003 (ip), vehicle: Klucel (hydroxypropylcellulose) (HPC)) was 96 % of control.

In the case of `CCC/C=C/CCOC(=N)C(Cl)(Cl)Cl`, the T/C (endpoint: mean survival time, dose: 50.0 mg/kg/injection, schedule: Q01DX009 (ip), vehicle: saline with Tween-80) is reported as 92 % of control, the T/C (endpoint: mean survival time, dose: 100.0 mg/kg/injection, schedule: Q01DX009 (ip), vehicle: saline with Tween-80) is reported as 92 % of control and the T/C (endpoint: mean survival time, dose: 200.0 mg/kg/injection, schedule: Q01DX009 (ip), vehicle: saline with Tween-80) is reported as 88 % of control.

With `COc1ccc(-c2nc(C)cc3cc(OC)c(OC)cc23)cc1OC` the T/C [12] was 94 % of control, the T/C [13] was 94 % of control and the T/C [14] was 91 % of control. The T/C (endpoint: mean survival time, dose: 100.0 mg/kg/injection, schedule: Q01DX009 (ip), vehicle: water) was 89 % of control.

In the case of `O=C(CCCCCCC(=O)ON1C(=O)CCC1=O)ON1C(=O)CCC1=O`, the T/C [8] is reported as 102 % of control, the T/C [9] is reported as 102 % of control and the T/C [10] is reported as 103 % of control. The T/C [11] was 102 % of control.

In the case of `CCOC(=O)CN1C(=O)CN=C(c2ccccn2)c2cc(Cl)ccc21`, the T/C [15] is reported as 102 % of control, the T/C [16] is reported as 89 % of control and the T/C [17] is reported as 89 % of control.

With `CN(C)C1C(c2ccccc2)S(=O)(=O)C1(C)C` (stereo not given) the T/C (endpoint: mean survival time, dose: 100.0 mg/kg/injection, schedule: Q01DX001 (ip), vehicle: saline) was 100 % of control, the T/C [3] was 96 % of control and the T/C (endpoint: mean survival time, dose: 200.0 mg/kg/injection, schedule: Q01DX001 (ip), vehicle: saline) was 100 % of control. The T/C [5] was 101 % of control, the T/C (endpoint: mean survival time, dose: 400.0 mg/kg/injection, schedule: Q01DX001 (ip), vehicle: saline) was 100 % of control and the T/C [7] was 97 % of control.

For `Fc1c(F)c(N(c2ccccc2)c2ccccc2)c(F)c(F)c1N(c1ccccc1)c1ccccc1`, the T/C [15] was 95 % of control, the T/C [16] was 95 % of control and the T/C [17] was 93 % of control.
